Assays:
[1] = in vitro; format: cell-based; settings: human, mrc5 cells
Protocol: (§1) The Echovirus strain 11 (ECHO-11) and Enterovirus strain 70 (ENT-70) were purchased from American Type Culture Collection (ATCC). Virus stocks were propagated and antiviral assays were performed in MRC5 cells (ATCC). Cells were grown in Minimal Essential Medium with 10% fetal bovine serum.
(§2) The ability of compounds to protect cells against ECHO-11 or ENT-70 infection was measured by the XTT dye reduction method. Briefly, MRC5 cells were infected with ECHO-11 or ENT-70 at a multiplicity of infection (m.o.i.) of 0.0013 (ECHO-11) and 0.0017 (ENT-70) or mock-infected with medium only. Infected or uninfected cells were resuspended at 2×10^4 cells per mL and incubated with appropriate concentrations of drug. One day later, XTT/PMS was added to test plates, and the amount of formazan produced was quantified spectrophotometrically at 450/650 nm. The EC50 was calculated as the concentration of drug that increased the percentage of formazan production in drug-treated, virus-infected cells to 50% of that produced by drug-free, uninfected cells. The 50% cytotoxic dose (CC50) was calculated as the concentration of drug that decreased the percentage of formazan produced in drug-treated, uninfected cells to 50% of that produced in drug-free, uninfected cells. The therapeutic index (TI) was calculated by dividing the CC50 by the EC50.

[2] = tested on: MRC5 cells; test: in vitro; format: cell-based
Protocol: as §1, §2

[3] = tested on: HRV-14; test: Antirhinoviral HI-HeLa Cell Culture Assay (cell protection, XTT), HRV-14; format: cell-based, human rhinovirus
Procedure, shortened: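 HI-HeLa cells infected at m.o.i. 0.13 (or mock-infected), 8×10^5 cells/mL, incubated with compounds for two days; XTT/PMS formazan read at 450/650 nm. EC50 is the concentration restoring formazan in infected cells to 50% of compound-free mock-infected; CC50 is 50% decrease in mock-infected cells; TI = CC50/EC50.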

[4] = tested on: ECHO-11; test: Echovirus-11 MRC5 Cell Culture Assay; format: cell-based, Echovirus strain 11
Protocol: as §1, §2

[5] = in vitro; format: cell-based; settings: human, hi-hela cells
Protocol: as §2, with “CVA-21” for “ECHO-11”, “CVB-3” for “ENT-70”, “HI-HeLa” for “MRC5”, “0.05 (CVA-21)” for “0.0013 (ECHO-11)”, “0.08 (CVB-3)” for “0.0017 (ENT-70)”, “4×10^4” for “2×10^4”
The Coxsackie strains A-21 (CVA-21) and B-3 (CVB-3) were purchased from American Type Culture Collection (ATCC). Virus stocks were propagated and antiviral assays were performed in HI-HeLa cells (ATCC). Cells were grown in Minimal Essential Medium with 10% fetal bovine serum.

**Q.** With `CCOC(=O)/C=C/[C@H](CCC(N)=O)NC(=O)[C@H](Cc1ccccc1)N(C)C(=O)[C@H](CC(C)C)NC(=O)OCc1ccccc1` [Compound 2, Ethyl-3-(CBZ-L-Leu-L-N-Me-Phe-L-Gln)-E-Propenoate] as the molecule, how does the CC50 at 24 h [1] read?
**A.** 56 µM

**Q.** And the CC50 [2]?
**A.** 56 µM

**Q.** What about the TI ([3]; CC50/EC50, HRV serotype-14, 2880 min) of the same molecule?
**A.** 56

**Q.** And the EC50 ([3]; Rhinovirus B, HRV14, 48 h, HRV serotype-14 infected HI-HeLa cells, XTT, two days)?
**A.** 1 µM

**Q.** What about the TI ([4]; CC50/EC50, ECHO-11, 1440 min) of the same molecule?
**A.** 18

**Q.** What about the EC50 ([4]; Echovirus, 24 h, ECHO-11 infection of MRC5 cells, XTT, one day) of the same molecule?
**A.** 3.1 µM

**Q.** What about the CC50 at 24 h [5] of the same molecule?
**A.** 56 µM
